Data as given in PMC10303221, “Synthesis, In Silico Studies, and Antioxidant and Tyrosinase Inhibitory Potential of 2-(Substituted Phenyl) Thiazolidine-4-Carboxamide Derivatives” (Pharmaceuticals, 2023).
In brackets after ≈: the same amount, converted by molar mass.

Tests used:
[1] = DPPH free radical scavenging assay (antioxidant activity); settings: mean ± SD, triplicate; 30 min at 37 °C, absorbance 517 nm
Text: The 2,2-Diphenyl-1-picrylhydrazyl (DPPH) radical was used to evaluate the antioxidant potential of the synthesized compounds. Different concentrations of the samples were employed in the subject assay. […] The principle of this assay is related to the conversion of the purple-colored free radical into the pale-yellow-colored reduced form, owing to the action of a proton donating or antioxidant agent. […] Alternatively, compound 1d also acquired hydroxy groups on both mentioned positions. These groups are categorized as strong proton donors which tend to participate in the reduction in DPPH free radicals by donating protons.
The synthesized compounds were evaluated for their antioxidant activity by measuring their ability to scavenge DPPH free radicals. A previously described protocol was followed for this purpose. An amount of 20 µL of each of the four different dilutions of test samples (200, 66.66, 22.22, and 7.41 µg/mL) was added to 96-well plates containing 180 µL of DPPH solution. The absorbance at 517 nm was determined after incubating for 30 min at 37 °C. Ascorbic acid (1 mg/mL DMSO) was used as the positive control, and the assay was performed in triplicate. The IC50 values were also calculated using the % of inhibitions at different concentrations using Table Curve 2D Windows version 4.07.

mushroom tyrosinase = mushroom tyrosinase (Agaricus bisporus, UniProt C7FF04); assay: Mushroom tyrosinase inhibitory assay (L-DOPA substrate, dopachrome absorbance at 492 nm); format: biochemical; settings: compared with kojic acid
Method: An evaluation of the inhibitory effect on the tyrosinase enzyme was conducted on mushroom tyrosinase.
A tyrosinase inhibitory assay was conducted with the mushroom tyrosinase enzyme. An amount of 20 µL of mushroom tyrosinase (30 U/mL) was combined with 140 µL (20 mM, pH 6.8) of phosphate buffer. An amount of 20 µL of inhibitor solution was added to a 96-well microplate. Then pre-incubation at room temperature was conducted for 10 min. A solution of L-DOPA (20 μL—0.85 mM) was added. This was followed by the incubation of the plate for 20 min at 25 °C. Using a microplate reader (OPTIMax, Tunable), the absorbance of dopa-chrome was recorded at 492 nm.
The absorbance of dopa-chrome was measured at 492 nm using a microplate reader (OPTIMax, Tunable, San Jose, CA, USA). […] The IC50 values were used to express the extent of inhibition. The experiments were performed in triplicate for each concentration.

Sequence of mushroom tyrosinase (C7FF04 2-392): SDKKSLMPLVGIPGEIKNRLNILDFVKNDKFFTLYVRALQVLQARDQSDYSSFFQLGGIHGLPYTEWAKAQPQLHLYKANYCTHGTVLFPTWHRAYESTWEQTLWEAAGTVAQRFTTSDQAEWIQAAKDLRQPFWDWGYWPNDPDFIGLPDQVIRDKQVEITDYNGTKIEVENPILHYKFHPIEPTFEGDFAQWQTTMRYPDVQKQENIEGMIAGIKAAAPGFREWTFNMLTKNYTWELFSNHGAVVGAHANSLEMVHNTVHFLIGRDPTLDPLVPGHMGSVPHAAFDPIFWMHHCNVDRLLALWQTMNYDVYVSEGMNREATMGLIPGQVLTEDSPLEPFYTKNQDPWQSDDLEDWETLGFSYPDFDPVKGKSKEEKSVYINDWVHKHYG

melting point | IC50 in the DPPH free radical scavenging assay [1] | Tyrosinase inhibitory activity, in words (mushroom tyrosinase) | SMILES
128 to 129 °C |  |  | O=C(C1CSC(c2ccccc2O)N1)N1CCOCC1 (stereo not drawn) [Compound 1b, [2-(2-Hydroxyphenyl)-1,3-thiazolidin-4-yl](morpholin-4-yl)-methanone]
83 to 84 °C |  |  | COc1ccc(NC(=O)C2CSC(c3ccccc3O)N2)cc1 (stereo not drawn) [Compound 1e, 2-(2-Hydroxyphenyl)-N-(4-methoxyphenyl)-1,3-thiazolidine-4-carboxamide]
112 to 113 °C | 18.17 ± 1.0 µg/mL (≈ 48.5 µM) | moderate activity | COc1ccccc1C1NC(C(=O)Nc2ccc(C(=O)O)c(O)c2)CS1 (stereo not drawn) [Compound 2d, 2-Hydroxy-4-[2-(2-methoxyphenyl)-1,3-thiazolidine-4-carbonyl]-aminobenzoic Acid]
109 to 110 °C |  |  | COc1ccc(C2NC(C(=O)Nc3ccc(C(=O)O)c(O)c3)CS2)cc1 (stereo not drawn) [Compound 4d, 2-Hydroxy-4-[2-(4-methoxyphenyl)-1,3-thiazolidine-4-carbonyl]-aminobenzoic Acid]
130 to 131 °C |  |  | O=C(O)c1ccc(NC(=O)C2CSC(c3ccc(O)cc3)N2)cc1O (stereo not drawn) [Compound 3d, 2-Hydroxy-4-[2-(4-hydroxyphenyl)-1,3-thiazolidine-4-carbonyl]-aminobenzoic Acid]
115 to 117 °C |  | moderate activity | COc1ccc(NC(=O)C2CSC(c3ccc(O)cc3)N2)cc1 (stereo not drawn) [Compound 3e, 2-(4-Hydroxyphenyl)-N-(4-methoxyphenyl)-1,3-thiazolidine-4-carboxamide]

The remaining lines, values behind:

SMILES | melting point | IC50 in the DPPH free radical scavenging assay [1] | Tyrosinase inhibitory activity, in words (mushroom tyrosinase)
O=C(O)c1ccc(NC(=O)C2CSC(c3ccccc3O)N2)cc1O (stereo not drawn) [Compound 1d, 2-Hydroxy-4-[2-(2-hydroxyphenyl)-1,3-thiazolidine-4-carbonyl]-aminobenzoic Acid] | 134 to 135 °C | 18.27 ± 1.1 µg/mL (≈ 50.7 µM) | 
O=C1O[C@H]([C@@H](O)CO)C(O)=C1O [ascorbic acid, reference compound] |  | 7.83 ± 0.5 µg/mL (≈ 44.5 µM) | 
COc1ccc(NC(=O)C2CSC(c3ccc(OC)cc3)N2)cc1 (stereo not drawn) [Compound 4e, N,2-Bis(4-methoxyphenyl)-1,3-thiazolidine-4-carboxamide] | 129 to 131 °C |  | moderate activity
COc1ccccc1C1NC(C(=O)Nc2ccc(C(=O)O)cc2)CS1 (stereo not drawn) [Compound 2a, 4-[2-(2-Methoxyphenyl)-1,3-thiazolidine-4-carbonyl]-aminobenzoic Acid] | 116 to 117 °C |  | moderate activity
COc1ccc(C2NC(C(=O)Nc3ccc(C(=O)O)cc3)CS2)cc1 (stereo not drawn) [Compound 4a, 4-[2-(4-Methoxyphenyl)-1,3-thiazolidine-4-carbonyl]-aminobenzoic Acid] | 94 to 95 °C |  | 
O=C(Nc1ccc(O)cc1)C1CSC(c2ccccc2O)N1 (stereo not drawn) [Compound 1c, 2-(2-Hydroxyphenyl)-N-(4-hydroxyphenyl)-1,3-thiazolidine-4-carboxamide] | 109 to 111 °C |  | 
O=C(Nc1ccc(O)cc1)C1CSC(c2ccc(O)cc2)N1 (stereo not drawn) [Compound 3c, N,2-Bis(4-hydroxyphenyl)-1,3-thiazolidine-4-carboxamide] | 174 to 176 °C |  | 
O=C(O)c1ccc(NC(=O)C2CSC(c3ccccc3O)N2)cc1 (stereo not drawn) [Compound 1a, 4-[2-(2-Hydroxyphenyl)-1,3-thiazolidine-4-carbonyl]-aminobenzoic Acid] | 135 to 136 °C |  | 
O=C(O)c1ccc(NC(=O)C2CSC(c3ccc(O)cc3)N2)cc1 (stereo not drawn) [Compound 3a, 4-[2-(4-Hydroxyphenyl)-1,3-thiazolidine-4-carbonyl]-aminobenzoic Acid] | 164 to 166 °C |  | 
